Test results published in PMC7115513 (European Journal of Medicinal Chemistry, 2012).
pIC50: −log10 of the molar value. Where two headings read alike, the source gives them in different places. Marks after values point to notes of the source that are not given here.

Assays:
[1] = system: P. falciparum CQ^S (3D7); type: cell-based, Plasmodium falciparum; conditions: read-out: IC50 CQ^S (3D7); CQ sensitive strain; primary screening
[2] = system: P. falciparum CQ^R (K1); assay: microbe, parasite or virus in culture; type: cell-based, Plasmodium falciparum
[3] = system: Madin Darby canine kidney (MDCK) cells
[4] = pH 5.6; cited from earlier work
[5] = pH 5.8; cited from earlier work
[6] = type: binding; conditions: heme 2.4 μM, DMSO:H2O/4:6, v/v; increasing compound concentration
[7] = target: GC rich CT DNA; type: binding, calf

Row | Compound | Cytotoxicity MIC ([3]; dog) | other results
1 | 5-Ethoxycarbonyl-6-methyl-4-phenyl-2-[5-(7-chloroquinolin-4-ylamino)-2-methylpentylamino] pyrimidine [Compound 10k] |  | pIC50 [1]: 6.54; pIC50 ([2]; read-out: IC50 CQ^R (K1)): 6.07
2 | NC12CC3CC(CC(C3)C1)C2 [Amantadine, reference compound] | h 50% cytotoxic concentration, as determined by measuring the cell viability with the colorimetric formazan- based MTS assay (reference drugs used: Oseltamivir carboxylate CC50/MIC >100, Ribavirin CC50/MIC >100, Amantadine CC50/MIC >200 and Rimantadine CC50/MIC >200). μM | 
3 | CCN(CC)CCCC(C)Nc1ccnc2cc(Cl)ccc12 (stereo not drawn) [Compound 2, chloroquine, reference compound] |  | Monomeric heme log K [4]: 4.82; pIC50 ([2]; Plasmodium falciparum, K1, read-out: IC50 CQ^R (K1)): 6.70; μ-oxo heme log K [5]: 5.6 ^c
4 | CCOC(=O)c1c(C)nc(NCCNc2ccnc3cc(Cl)ccc23)nc1-c1ccccc1 [Compound 10a, 5-Ethoxycarbonyl-6-methyl-4-phenyl-2-[(7-chloroquinolin-4-ylamino)ethylamino] pyrimidine] | 0.8 µM | 
5 | CCOC(=O)c1c(C)nc(NCCCNc2ccnc3cc(Cl)ccc23)nc1-c1ccccc1 [Compound 10b, 5-Ethoxycarbonyl-6-methyl-4-phenyl-2-[(7-chloroquinolin-4-ylamino)propylamino]pyrimidine] | 0.8 µM | 
6 | CCOC(=O)c1c(C)nc(NCCCCNc2ccnc3cc(Cl)ccc23)nc1-c1ccccc1 [Compound 10c, 5-Ethoxycarbonyl-6-methyl-4-phenyl-2-[(7-chloroquinolin-4-ylamino)butylamino]pyrimidine] | 0.8 µM | 
7 | CCOC(=O)c1c(C)nc(Nc2ccccc2Nc2ccnc3cc(Cl)ccc23)nc1-c1ccccc1 [Compound 10h, 5-Ethoxycarbonyl-6-methyl-4-phenyl-2-[2-(7-chloroquinolin-4-ylamino)phenylamino] pyrimidine] |  | change in heme absorbance at 402 nm on titration [6]: no change in the absorbance at 402 nm
8 | CCOC(=O)c1c(C)nc(Nc2ccc(Nc3ccnc4cc(Cl)ccc34)cc2)nc1-c1ccccc1 [Compound 10i, 5-Ethoxycarbonyl-6-methyl-4-phenyl-2-[4-(7-chloroquinolin-4-ylamino)phenylamino] pyrimidine] |  | change in heme absorbance at 402 nm on titration [6]: marked gradual decrease in absorbance at 402 nm
9 | CCOC(=O)c1c(C)nc(NCCCNc2ccnc3cc(Cl)ccc23)nc1C [Compound 10l, 5-Ethoxycarbonyl-6-methyl-4-methyl-2-[(7-chloroquinolin-4-ylamino)propylamino]pyrimidine] | 20 µM | 
10 | CCOC(=O)c1c(C)nc(NCCCCNc2ccnc3cc(Cl)ccc23)nc1C [Compound 10m, 5-Ethoxycarbonyl-6-methyl-4-methyl-2-[(7-chloroquinolin-4-ylamino)butylamino]pyrimidine] | 4 µM | 
11 | Cc1nc(NCCCNc2ccnc3cc(Cl)ccc23)nc(-c2cccc([N+](=O)[O-])c2)c1C(=O)OC(C)C [Compound 10n, 5-Isopropyloxycarbonyl-6-methyl-4-(3-nitrophenyl)-2-[(7-chloroquinolin-4-ylamino)propylamino]pyrimidine] | 0.8 µM | 
12 | Cc1nc(NCCNc2ccnc3cc(Cl)ccc23)nc(-c2ccccc2[N+](=O)[O-])c1C(=O)OC(C)C [Compound 10p, 5-Isopropyloxycarbonyl-6-methyl-4-(2-nitrophenyl)-2-[(7-chloroquinolin-4-ylamino)ethylamino] pyrimidine] | ≥0.8 µM | 
13 | Cc1nc(NCCCCNc2ccnc3cc(Cl)ccc23)nc(-c2ccccc2[N+](=O)[O-])c1C(=O)OC(C)C [Compound 10r, 5-Isopropyloxycarbonyl-6-methyl-4-(2-nitrophenyl)-2-[(7-chloroquinolin-4-ylamino)butylamino] pyrimidine] | 4.0 µM | binding constant (log K) from fluorescence data, CT DNA [7]: 4.67
14 | NC(=O)c1ncn([C@@H]2O[C@H](CO)[C@@H](O)[C@H]2O)n1 [Ribavirin, reference compound] | h 50% cytotoxic concentration, as determined by measuring the cell viability with the colorimetric formazan- based MTS assay (reference drugs used: Oseltamivir carboxylate CC50/MIC >100, Ribavirin CC50/MIC >100, Amantadine CC50/MIC >200 and Rimantadine CC50/MIC >200). μM | 
15 | CC(N)C12CC3CC(CC(C3)C1)C2 (stereo not drawn) [Rimantadine, reference compound] | h 50% cytotoxic concentration, as determined by measuring the cell viability with the colorimetric formazan- based MTS assay (reference drugs used: Oseltamivir carboxylate CC50/MIC >100, Ribavirin CC50/MIC >100, Amantadine CC50/MIC >200 and Rimantadine CC50/MIC >200). μM | 
16 | Oseltamivir carboxylate [reference compound] |  | CC50 [3]: > 100000 nM; Cytotoxicity MIC [3]: h 50% cytotoxic concentration, as determined by measuring the cell viability with the colorimetric formazan- based MTS assay (reference drugs used: Oseltamivir carboxylate CC50/MIC >100, Ribavirin CC50/MIC >100, Amantadine CC50/MIC >200 and Rimantadine CC50/MIC >200). μM
